Structures can show the parent of a compound that is named as a salt. *1 amine or outer side, *2 acyl side, *3 side chain or, on linkers, in order; H or OH if unused. Where a SMILES comes first, the peptide text is derived from it. Bridges are numbered along the chain shown (N, C = ends). [ ]: non-standard residue; d: D form. The star is where a group is joined. pTerphenylCO(4''-OnC5H11) = CCCCCOc1ccc(-c2ccc(-c3ccc(C(=O)*)cc3)cc2)cc1; Orn(4R-OH,5R-OH) = O=C([C@H](C[C@@H](O)[C@@H](O)N[*:3])N[*:1])[*:2]; hTyr(3S-OH,4S-OH) = N[C@H](C(=O)O)[C@H](O)[C@@H](O)c1ccc(O)cc1; Pro(3S-OH,4S-Me) = C[C@H]1CN[C@H](C(=O)O)[C@H]1O; Hyp = O=C(O)[C@@H]1C[C@@H](O)CN1
What was measured:
[1] = tested on: TMR-cC0-C2 (C0-C2 fragment of human cMyBP-C); assay: FLT-TMR concentration-response assay (FLT of TMR on cC0-C2, no actin); format: binding
Protocol: (§1) Compounds identified as initial hits were further examined to determine the concentration–response curves for seven conditions ([1]): FMAL-actin alone identified actin-binding compounds that alter the FLT of FMAL-actin ([2]).
(§2) Fluorescence lifetime (FLT) measurements were acquired using a high-throughput FLT plate reader (Fluorescence Innovations, Inc) ([14], [27]), provided by Photonic Pharma LLC. […] The observed waveforms were analyzed as described previously ([15], [28]).
(§3) The primary hits were dissolved in DMSO to make a 10 mM stock solution, which was serially diluted in 96-well mother plates. Hits were screened at eight concentrations (0.5–100 μM). […] Compounds (1 μl) were transferred from the mother plates into 384-well plates using a Mosquito HV liquid handler (TTP Labtech Ltd, Hertfordshire, UK). The same procedure of dispensing as for the pilot screening was applied in the concentration-response assays. Concentration dependence of the FLT-FRET (E/EDMSO) or FLT-TMR (Δτ) change data was fit to a Hill equation only under certain conditions to help guide the eye (Fig. 4).

[2] = tested on: PKA-phosphorylated TMR-cC0-C2 (cC0-C2#P); assay: FLT-TMR concentration-response assay, PKA-phosphorylated cC0-C2; format: binding, human
Protocol: as §1, §2, §3

[3] = tested on: TMR-fC1-C2 (C1-C2 of fast skeletal MyBP-C); assay: FLT-TMR concentration-response assay, fC1-C2; format: binding
Protocol: as §1, §2, §3

[4] = tested on: FMAL-actin plus TMR-cC0-C2; assay: Selleck library HTS, 473 nm excitation (FLT of FMAL-actin with TMR-cC0-C2, FLT-FRET); format: binding, human; conditions: for 473-nm Δτ, Repeat 1 / 473-nm Δτ, Repeat 2: initial screen, 30 μM compound; for 473-nm z-score (based on avg Δτ): robust z-score, hit threshold ±4, 30 μM compound
Protocol: as §2
(§4) In total, 50 nl of each solution was dispensed in DMSO using an automated Echo 550 acoustic liquid dispenser (Labcyte). Compounds were formatted into the assay plates, at a final concentration of 30 μM, with the first two and second to last columns loaded with DMSO only (compound-free controls). In the final column, 30 μM of suramin was loaded as a positive control (tool compound). These assay plates were then heat-sealed using a PlateLoc Thermal Microplate Sealer (Agilent Technologies) and stored at −20 °C. Before screening, compound plates were equilibrated to room temperature (∼25 °C). […] Plates were incubated at room temperature for 60 min before recording the data with the fluorescence lifetime plate reader.
After fitting the waveforms with a single exponential decay to quantify donor FLT, the change in FLT (Δτ) was computed by performing a moving median subtraction in the order the plate was scanned with a window size of half a plate row […]. The reasons for this are twofold. Firstly, plate gradients are often observed due to the heating of the digitizer during acquisition.
To account for the necessity to correct for plate gradients in the computation of E, the median τDMSO prior to the application of the moving median correction was added to each well’s Δτ value to recover a rescaled value of τ.

TMR-cC0-C2 = assay: Selleck library HTS, 532 nm excitation (FLT of TMR-cC0-C2 in presence of FMAL-actin); format: binding, human; conditions: for 532-nm Δτ, Repeat 1 / 532-nm Δτ, Repeat 2: initial screen, 30 μM compound; for 532-nm z-score (based on avg Δτ): robust z-score, hit threshold ±4, 30 μM compound
Protocol: as §2, §4
Hits that exceeded the z-score hit criteria in the donor-only screen were excluded from consideration. To remove compounds with confounding fluorescence properties, a similarity index (SI, specifically the cosine distance, Equation 5) was computed using data from the SUPR instrument by comparing a region (500–540 nm) of the donor-only spectrum (I^(a)) for each well to that of the plate-wide average DMSO spectrum (I^(b)) in the same wavelength band ([29]). Compounds that exceeded an SI robust z-score of 4 were deemed likely fluorescent compounds and removed from consideration.(5) SI=1−∑Ii(a).Ii(b)/∑Ii(a).Ii(a)∑Ii(b).Ii(b)

[5] = tested on: FMAL-actin/TMR-cC0-C2 interaction; assay: FLT-FRET concentration-response assay, FMAL-actin plus TMR-cC0-C2; format: binding, human; conditions: for fold effect on increased FRET (or binding) (Table 2): comparison not given
Protocol: as §1, §2, §3

[6] = listed as Erlotinib HCl (OSI-744)

Molecule	cC0-C2/cC0-C2#P (ratio of FLT changes) ([1]; 60 μM compound)	cC0-C2 FLT change (% change from DMSO, FLT of TMR-MyBP-C) ([1]; 60 μM compound) [%]	cC0-C2#P FLT change (% change from DMSO, FLT of TMR-MyBP-C) ([2]; 60 μM compound) [%]	cC0-C2/fC1-C2 (ratio of FLT changes) ([3]; 60 μM compound)	fC1-C2 FLT change (% change from DMSO, FLT of TMR-MyBP-C) ([3]; 60 μM compound) [%]	473-nm Δτ, Repeat 1 [4] [ns]	473-nm Δτ, Repeat 2 [4] [ns]	473-nm z-score (based on avg Δτ) [4]	532-nm Δτ, Repeat 1 (TMR-cC0-C2) [ns]	532-nm Δτ, Repeat 2 (TMR-cC0-C2) [ns]	532-nm z-score (based on avg Δτ) (TMR-cC0-C2)	further results
O=C(O)[C@H]1O[C@@H](Oc2cc3oc(-c4ccc(O)cc4)cc(=O)c3c(O)c2O)[C@H](O)[C@@H](O)[C@@H]1O [Scutellarin]	1.0	−9.1	−8.7	1.0	−9.5	0.142	0.076	6.15	-0.111	-0.145	-7.79	–
Cc1cnc(C(=O)N[C@H]2CCCCC/C=C\[C@@H]3C[C@@]3(C(=O)NS(=O)(=O)C3CC3)NC(=O)[C@@H]3C[C@@H](Oc4nc5ccccc5c5ccccc45)CN3C2=O)cn1 [Paritaprevir (ABT-450), Paritaprevir]	1.2	23.8	20.3	2.2	11.0	0.115	0.058	4.85	0.220	0.254	14.52	–
CC1(C)CC[C@]2(C(=O)O)CC[C@]3(C)C(=CC[C@@H]4[C@@]5(C)CC[C@H](O)[C@@](C)(CO)[C@@H]5CC[C@]43C)[C@@H]2C1 [Hederagenin]	0.7	2.5	3.6	1.1	2.3	0.083	0.060	4.06	-0.038	-0.038	-2.29	–
C[C@@H]1O[C@@H](OC[C@H]2O[C@@H](Oc3c(-c4ccc(OCCO)c(OCCO)c4)oc4cc(OCCO)cc(O)c4c3=O)[C@H](O)[C@@H](O)[C@@H]2O)[C@H](O)[C@H](O)[C@H]1O [Troxerutin]	0.8	6.1	7.3	1.0	6.0	-0.024	-0.024	-1.32	0.074	0.088	4.99	–
C#Cc1cccc(Nc2ncnc3cc(OCCOC)c(OCCOC)cc23)c1 [Erlotinib HCl]	0.8	11.8	13.9	1.1	11.1	–	–	–	–	–	–	473-nm Δτ, Repeat 1 [4, 6]: -0.040 ns; 473-nm Δτ, Repeat 2 [4, 6]: -0.010 ns; 473-nm z-score (based on avg Δτ) [4, 6]: -1.36; 532-nm Δτ, Repeat 1 (TMR-cC0-C2; [6]): 0.138 ns; 532-nm Δτ, Repeat 2 (TMR-cC0-C2; [6]): 0.020 ns; 532-nm z-score (based on avg Δτ) (TMR-cC0-C2; [6]): 4.88
CCCCCOc1ccc(-c2ccc(-c3ccc(C(=O)N[C@H]4C[C@@H](O)[C@@H](O)NC(=O)[C@@H]5[C@@H](O)[C@@H](C)CN5C(=O)[C@H]([C@@H](C)O)NC(=O)[C@H]([C@H](O)[C@@H](O)c5ccc(O)cc5)NC(=O)[C@@H]5C[C@@H](O)CN5C(=O)[C@H]([C@@H](C)O)NC4=O)cc3)cc2)cc1 [Anidulafungin] ({pTerphenylCO(4''-OnC5H11)}-[Orn(4R-OH,5R-OH)]T[Hyp][hTyr(3S-OH,4S-OH)]T[Pro(3S-OH,4S-Me)]; lactam 1-C)	0.7	32.1	43.3	0.6	53.0	0.014	0.008	0.67	0.403	0.441	25.80	–
CC1(C)CCC(C)(C)c2cc(NC(=O)c3ccc(C(=O)O)cc3)ccc21 [Tamibarotene]	0.7	5.2	7.2	0.9	5.9	0.075	0.067	4.00	0.075	0.106	5.55	–
COc1nc2ccc(Br)cc2cc1[C@@H](c1ccccc1)[C@@](O)(CCN(C)C)c1cccc2ccccc12.O=C(O)/C=C/C(=O)O [Bedaquiline fumarate]	0.7	−4.5	−6.5	0.7	6.7	-0.324	-0.412	-20.57	-0.009	-0.105	-3.45	–
Verteporfin	–	–	–	–	–	0.093	0.064	4.41	0.065	0.075	4.32	cC0-C2/cC0-C2#P (ratio of FLT changes) ([1]; 10 μM compound (∗)): 0.8; cC0-C2 FLT change (% change from DMSO, FLT of TMR-MyBP-C) ([1]; 10 μM compound (∗)): 5.5%; cC0-C2#P FLT change (% change from DMSO, FLT of TMR-MyBP-C) ([2]; 10 μM compound (∗)): 6.8%; cC0-C2/fC1-C2 (ratio of FLT changes) ([3]; 10 μM compound (∗)): 2.2; fC1-C2 FLT change (% change from DMSO, FLT of TMR-MyBP-C) ([3]; 10 μM compound (∗)): 2.5%; fold effect on increased FRET (or binding) (Table 2) [5]: fivefold or greater; specificity of FLT-FRET effect for cC0-C2 over fC1-C2 ([5]; effect on cC0-C2 compared to fC1-C2 (Tables 1 and 2)): 22.4 fold
O=C(Nc1ccc(Cl)cc1)Nc1ccc(Cl)c(Cl)c1 [Triclocarban]	0.6	11.6	18.2	0.5	22.2	-0.128	-0.042	-4.72	0.374	0.415	24.12	–
C[C@H]1O[C@@H](O[C@H]2CC[C@@]3(C)[C@@H](CC[C@]4(C)[C@@H]3C=C[C@]35OC[C@@]6(CCC(C)(C)C[C@H]63)[C@H](O)C[C@]54C)[C@]2(C)CO)[C@H](O)[C@@H](O[C@@H]2O[C@H](CO)[C@@H](O)[C@H](O)[C@H]2O)[C@H]1O [Saikosaponin D]	0.9	5.4	6.3	1.3	4.2	-0.122	-0.094	-5.99	0.065	0.086	4.65	fold effect on increased FRET (or binding) (Table 2) [5]: fivefold or greater; specificity of FLT-FRET effect for unphosphorylated over phosphorylated cC0-C2 ([5]; effect on cC0-C2 compared to phosphorylated cC0-C2 (Tables 1 and 2)): 13–54 fold
